Some test systems named below: DU-145 prostate; HOP-62 NSCLC; MDA-MB-231 breast; NCI-H226 lung; OVCAR-3 ovarian; OVCAR-5 ovarian; OVCAR-8 ovarian; RXF 393 renal; SF-295 CNS; SR leukemia; T-47D breast.
Assay in all cases: NCI tumour cell line growth inhibition, 48 h

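How tested: cells in 96-well plates exposed to compound for 48 hours at five concentrations. Definition used: TGI = concentration required for complete inhibition of growth.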 A value given as a limit tells only on which side of the number the result lay.

`COc1ccc(C2c3cc4c(cc3OC(NNc3ccccc3)C2C)OCO4)cc1` (centres undefined): the TGI in the assay on DU-145 prostate is over 100 µM; in the assay on HOP-62 NSCLC, 20.2 µM; in the assay with MDA-MB-231 breast, over 100 µM; in the assay on NCI-H226 lung it was over 100 µM; with OVCAR-3 ovarian, 39.8 µM; with OVCAR-5 ovarian, over 100 µM. Besides, the TGI with OVCAR-8 ovarian was 63.5 µM; with RXF 393 renal it was 54.3 µM; in the assay with SF-295 CNS, over 100 µM; with SR leukemia, 16.3 µM; in the assay on T-47D breast, over 100 µM.
For `CCOC(=O)C(NC(=O)OCc1ccccc1)C(=O)O` (centres undefined), the TGI in the assay with DU-145 prostate, with HOP-62 NSCLC, with MDA-MB-231 breast, in the assay on NCI-H226 lung, with OVCAR-3 ovarian and with OVCAR-5 ovarian was over 100 µM throughout. The TGI in the assay with OVCAR-8 ovarian, in the assay on RXF 393 renal, in the assay on SF-295 CNS, in the assay on SR leukemia and with T-47D breast was over 100 µM throughout.
As to `CC1(C)CCN2C(=O)C34CCCC3CC21S4` (centres undefined), the TGI in the assay with DU-145 prostate, with HOP-62 NSCLC, in the assay with MDA-MB-231 breast, with NCI-H226 lung, in the assay on OVCAR-3 ovarian and with OVCAR-5 ovarian was over 100 µM in each case. Besides, the TGI in the assay with OVCAR-8 ovarian, in the assay with RXF 393 renal, in the assay with SF-295 CNS, with SR leukemia and with T-47D breast was over 100 µM throughout.
As to `CNC(=O)c1n[nH]n(C2CCCCC2)c1=S`, the TGI was over 100 µM in the assay with DU-145 prostate; over 100 µM in the assay on HOP-62 NSCLC; over 100 µM in the assay on MDA-MB-231 breast; over 100 µM with NCI-H226 lung; 37 µM in the assay on OVCAR-3 ovarian; over 100 µM in the assay with OVCAR-5 ovarian. Also, the TGI in the assay on OVCAR-8 ovarian, in the assay on RXF 393 renal, in the assay with SF-295 CNS, in the assay on SR leukemia and in the assay with T-47D breast was over 100 µM throughout.

For the origin of these results see PubChem BioAssay (NCI).
